Where no end group is shown, it is not given here.
Test system: IL-1β production in murine peritoneal macrophages (PECs)
Experiment: IL-1β secretion (ELISA) by primed, ATP-pulsed peritoneal macrophages (PECs)
Assay type: cell-based, mouse
Method: FIGS. 1A-1J illustrate the finding that adenosine stimulates IL-1β production in NLRP3 inflammasome-dependent manner. Murine peritoneal macrophages (PECs) were obtained from wild type (WT) mice (FIGS. 1A-1D, 1F-1I), Il1r−/− (FIG. 1E) or Nlrp3−/−, ASC−/−, P2xr7−/−, or Caspase-1−/− mice (FIG. 1J) and were primed with LPS for 16 hours. FIG. 1A: This was followed by treatment for 1 hour with adenosine (Ad, 100 μM), adenosine deaminase inhibitor (EHNA, 10 μM), adenosine deaminase (ADA, 10 U ml^−1), ATP diphosphohydrolase (Apyrase, 10 U ml^−1), or erythro-9-(2-hydroxy-3-nonyl) adenine (EHNA, 10 μM) (FIGS. 1B, 1F-1J)). Pan adenosine agonist (NECA, 1 μM, 10 μM) (FIGS. 1C, 1E), or (FIGS. 1D, 1I) by NECA for 1 and 6 hours, and were then pulsed with ATP for 20 min. Enzyme-linked immunosobent assay (ELISA) of IL-1β, TNF-α, IL-10 and IFN-γ secretion were measured in cell supernatants after pulsing with ATP for 5 hours (FIGS. 1A, 1C-1E, 1J) or indicated time-course (FIGS. 1B, 1G-1I). LDH assay was performed after pulsing with ATP as indicated time-course (FIG. 1F). Data are expressed as the mean±SD from at least three independent experiments. *p<0.05 determined by Student's t-test.
C57BL/6 mice were purchased from the National Cancer Institute. ASC−/−, Caspase-1−/−, Nlrp3−/− and P2xr7−/− mice have been described (Rock et al., 2010, Annu Rev Immunol. 28:321-42). A2ora2a flox/flox mice and LysMcre mice were purchased from Jackson Laboratories. HIF-1a flox/flox mice were kindly provided by Dr. Ruslan M Medzhitov (Yale University). 7- to 12-week-old males with a variety of genetic manipulations were used in most experiments. The number of mice in each experimental group was chosen based on previous experience with these experimental models. Mouse peritoneal macrophages (PECs) were isolated by peritoneal lavage 3 days after intraperitoneal injection of 4% thioglycollate solution (B2551, Fluka,). Cells were plated at the density of 3×10^6 cells in 12-well dishes and non-adherent cells were removed after 3 h. Cells primed overnight with 100 ng/ml LPS or 10 ng/ml Pam3CSK4 were treated with various chemicals and followed stimulation. Cells were cultured in DMEM medium complemented with 10% FBS, penicillin/streptomycin and L-glutamine. Mouse bone marrow derived macrophages were isolated from bone marrow cells, and were differentiated for 7 days in complete RPMI-1640 medium supplemented with 2 mM L-glutamine, 100 U/ml penicillin, 100 μg/ml streptomycin, 50 μM 2-mercaptoethanol (all from Invitrogen), 10% heat-inactivated FBS and 20 ng/ml M-CSF (PeproTech). Kupffer cells (KC) were isolated by the density gradient separation of Optiprep (Sigma), and then plates were gently washed and media was replenished after seeding cells for 2 hours to raise KC purity.
Primed PECs were both pulsed for 20 min with 5 mM ATP or 10 μM nigericin, and left untreated until culture supernatants were collected. Secretion of IL-1β was determined by enzyme-linked immunoabsorbent assay (ELISA; R&D Systems).

[1] = LPS-primed PECs pulsed with ATP

Molecule: Nc1ncnc2c1ncn2[C@@H]1O[C@H](CO)[C@@H](O)[C@H]1O [adenosine]
- IL-1β production [1]: significantly increased
- IL-1β production (in the absence of either LPS or ATP): did not result in any detectable IL-1β

Molecule: PKI 14-22 amide (SGRTGRRNA-NH2; UniProt P61925 14-22, looked up, fragment)
- IL-1β production in response to NECA and CGS21680 (with PKA inhibition): significantly reduced

B1: adenosine deaminase: Adenosine deaminase obtained from Worthington Biochemical corporation (protein, UniProt P56658 2-363, looked up)
Adenosine deaminase: AQTPAFNKPKVELHVHLDGAIKPETILYYGRKRGIALPADTPEELQNIIGMDKPLSLPEFLAKFDYYMPAIAGCREAVKRIAYEFVEMKAKDGVVYVEVRYSPHLLANSKVEPIPWNQAEGDLTPDEVVSLVNQGLQEGERDFGVKVRSILCCMRHQPSWSSEVVELCKKYREQTVVAIDLAGDETIEGSSLFPGHVKAYAEAVKSGVHRTVHAGEVGSANVVKEAVDTLKTERLGHGYHTLEDATLYNRLRQENMHFEVCPWSSYLTGAWKPDTEHPVVRFKNDQVNYSLNTDDPLIFKSTLDTDYQMTKNEMGFTEEEFKRLNINAAKSSFLPEDEKKELLDLLYKAYGMPSPASAEQCL
- IL-1β production [1]: significant reduction

Reference: patent publication US10624917B2, “Compositions and methods useful for treating or preventing liver diseases or disorders, and promoting weight loss” (YALE UNIVERSITY, priority 2014, dated 2020)
